Reference: article PMC6627489, “Metal-Biosurfactant Complexes Characterization: Binding, Self-Assembly and Interaction with Bovine Serum Albumin” (International Journal of Molecular Sciences, 2019)
Non-standard residues stand in square brackets, D forms with d. No end group written: not given here.

Experiments:
[1] = Micelle size by dynamic light scattering (DLS); assay type: physicochemical; details: 10 mM Hepes pH 7.4, 25 °C
Description: For example, it is known that the addition of metal ions decreases the CMC of surfactin. This is probably related with two important competing forces during the micellization process. Electrostatic interactions, which are responsible for the repulsion of hydrophilic groups of the lipopeptide inhibit the formation of micelles. On the other hand, hydrophobic interactions are responsible for initiation of micellization through exclusion of fatty acid chains from the aqueous environment. The presence of divalent cations additionally supports the self-assembly process. […] In the case of the Cu^2+-surfactin system, Vmic^PM6 is twice lower than in the case of the free lipopeptide. Such big differences influence the aggregation number. Generally, Nagg decreases after binding of cations. The experimental micelle volumes and hydrodynamic radii with their theoretically calculated counterparts and aggregation numbers are shown in Table 1. The experimental (RH^DLS) and theoretically calculated (RH^PM6) hydrodynamic radii of surfactin-C15 were 2.46 nm and 2.40 nm, respectively. Addition of Cu^2+, Zn^2+, Mg^2+ and Ca^2+ reduces the size of the microstructures. In this study, we observed the largest modifications of surfactin-C15 conformation due to the binding of Cu^2+; in that case RH^DLS and RH^PM6 were 1.82 nm and 1.80 nm, respectively. […]

[2] = biological target: bovine serum albumin (BSA) (Bos taurus, UniProt P02769); test: Fluorescence quenching of BSA (Stern-Volmer, binding constant, Van't Hoff); details: for kq, biomolecular quenching rate constant / KSV, Stern-Volmer quenching constant: BSA 15 µM; for kq, biomolecular quenching rate constant: from KSV with τ0 about 5 ns; for KSV, Stern-Volmer quenching constant: excitation 280 nm; for ΔG of binding to BSA: ΔG=ΔH−TΔS
Description: Fluorescence spectroscopy is a valuable tool for studying ligand-protein interactions. BSA contains two tryptophan residues, Trp134 and Trp213, which are located in sub-domain IB and sub-domain IIA, respectively. The maximum emission wavelength of BSA was found at 348 nm, and the intensity decreased regularly upon increasing the concentration of surfactin and metal-surfactin complexes. This interaction takes place adjacent to the Trp in BSA and changes the polarity around the fluorophore. This phenomenon is ascribed to the formation of surfactin/BSA and metal-surfactin/BSA complexes.
Figure 4 Fluorescence emission spectra of bovine serum albumin (BSA) with different concentrations of Cu^2+-surfactin (a), Zn^2+-surfactin (b), Mg^2+-surfactin (c), Ca^2+-surfactin (d) and surfactin (e). Conditions: BSA: 15 µM; metal-lipopeptide (a–g): 0, 10, 20, 50, 70, 100 and 120 µM; pH = 7.4; T =25 °C.
Fluorescence quenching can occur through dynamic and static mechanisms. Both dynamic and static quenching require molecular contact between the fluorophore and the quencher. The Stern–Volmer quenching (KSV) values decrease with an increase in temperature for static quenching, but the reverse effect is observed for dynamic quenching. Quenching parameters were calculated from the Stern–Volmer equation [34]:(1) F0/F=1+KSV[Q]=1+kqτ0[Q] where F0 and F are the fluorescence intensities in the absence and presence of surfactin or metal-surfactin complexes, respectively; KSV is the Stern–Volmer quenching constant; [Q] is the concentration of surfactin or metal-surfactin complexes; kq is the biomolecular quenching rate constant; and τ0 is the lifetime of the fluorophore. The fluorescence lifetime of BSA is about 5 ns. The KSV values obtained from the plot of [Q] versus F0/F (shown in Figure 5) were in the range from 6.696 × 10^3 to 7.787 × 10^3 M^−1 corresponding to the surfactin and metal-surfactin complexes.
For the static quenching interaction, the binding constant (Kb) and the number of binding sites (n) can be determined by the following equation:(2) log[(F0−F)/F]=logKb+nlog[Q] where F0 and F are the fluorescence intensities in the absence and presence of surfactin or metal-surfactin complexes, respectively, and [Q] is the concentration of surfactin or metal-surfactin complexes. Binding constants obtained from the plot of log [Q] versus log [(F0−F)/F] (Figure 6) corresponding to surfactin and metal-surfactin complexes ranged from 0.746 × 10^4 to 1.315 × 10^4 M^−1. […] Regarding the binding constants (Kb), surfactin has values higher than all the tested metal-surfactin complexes. […] The above results are similar to those reported for metal-amphisin/BSA [27].
Thermodynamic parameters for a binding interaction can be used as major evidence for the nature of intermolecular forces. There are four types of interaction forces, which could play a role in ligand binding to proteins: Van der Waals forces, hydrophobic forces, electrostatic interactions and hydrogen bonds. Thermodynamic parameters relying on temperatures were analyzed to characterize the acting force between surfactin and metal-surfactin complexes with BSA. To obtain such information, the thermodynamic parameters were calculated from the Van’t Hoff relation:(3) lnK=−ΔH^0/RT+ΔS^0/R (4) ΔG^0=ΔH^0−TΔS^0=−RTlnK where K is the binding constant, R is the gas constant and T is the experimental temperature. ΔH denotes the enthalpy change and ΔS denotes the entropy change of the binding process. The ΔH and ΔS values were calculated from the slope and intercept of the Van’t Hoff plot (Figure S2), respectively. The negative sign for ΔG means that the interaction process is spontaneous. […] This observation is supported by the docking results.
The fluorescence quenching spectra were obtained with a Varian Cary eclipse fluorescence spectrophotometer. […]

[3] = Surface tension measurements (du Noüy ring), CMC determination; assay type: physicochemical; details: du Noüy ring tensiometry, 10 mM Hepes buffer pH 7.4, 25 °C, metal ions 0.1 mM where present, triplicate
Method: For the pure surfactin in the Hepes buffer without divalent counterions, the critical micelle concentration (CMC) value was 0.045 mM. Regarding the effect of divalent cations, Ca^2+ decreased the CMC value of surfactin-C15 more than the other cations. Compared with the surfactin-C15 solution without metal ions, the CMC of Ca^2+-surfactin decreased from 0.045 mM to 0.017 mM. The addition of 0.1 mM of Cu^2+, Mg^2+ and Zn^2+ to surfactin-C15 reduced the CMCs to 0.033 mM, 0.036 mM and 0.038 mM, respectively. All the tested metal ions led to reductions of the surface tension of surfactin-C15 at the CMC (γcmc), being the highest reductions obtained with Cu^2+ and Ca^2+ (from 28.4 mN·m^−1 up to 24.5 and 25.1 mN·m^−1, respectively). The peptide ring of surfactin adopts a “horsesaddle” structure in solution, with the two charged residues forming a “claw”, which is a potential binding site for divalent cations.
Figure 3 Surface tension profiles of surfactin and metal-surfactin complexes in Hepes buffer (pH 7.4) at 25 °C. The values represent the mean of triplicates ± SD.
The surface tension (γ) measurements were performed at room temperature (25 °C) according to the du Noüy’s ring method using a KRÜSS K20 Tensiometer (KRÜSS GmbH, Hamburg, Germany). […] The surface tension data were analyzed using the Origin software provided with the equipment to obtain the CMC values.

[4] = 25 °C, pH 7.4, from plot of log[(F0−F)/F] versus log[Q]
[5] = Van't Hoff plot over 25, 30, 37 °C

Chain of bovine serum albumin (BSA) (P02769 25-607): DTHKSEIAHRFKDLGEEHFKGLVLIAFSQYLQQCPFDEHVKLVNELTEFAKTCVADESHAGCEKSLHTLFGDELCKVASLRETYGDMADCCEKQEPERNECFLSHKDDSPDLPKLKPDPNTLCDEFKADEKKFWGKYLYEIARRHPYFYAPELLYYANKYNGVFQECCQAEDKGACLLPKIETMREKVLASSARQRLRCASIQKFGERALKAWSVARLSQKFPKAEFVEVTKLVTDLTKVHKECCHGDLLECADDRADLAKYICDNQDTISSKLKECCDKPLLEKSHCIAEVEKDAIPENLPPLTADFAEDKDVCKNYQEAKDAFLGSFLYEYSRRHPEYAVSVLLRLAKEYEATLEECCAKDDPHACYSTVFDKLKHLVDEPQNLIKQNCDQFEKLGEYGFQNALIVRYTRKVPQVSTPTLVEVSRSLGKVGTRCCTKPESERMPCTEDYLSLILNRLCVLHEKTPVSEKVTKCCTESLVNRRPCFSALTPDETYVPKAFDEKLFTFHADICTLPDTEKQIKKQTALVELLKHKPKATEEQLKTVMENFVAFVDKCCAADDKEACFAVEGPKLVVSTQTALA

RH^(DLS), hydrodynamic radius of micelles ([1]; DLS, 173° backscatter, mean of 9 replicates ± SD): 2.46 ± 0.03 nm | Vmic^(DLS), micelle volume ([1]; Vmic(DLS)=4/3·π·(RH(DLS))^3, from DLS radius): 62.36 nm^3 | Kb, binding constant with BSA [2, 4]: 13150 M⁻¹ | n, number of binding sites on BSA [2, 4]: 1.07 | kq, biomolecular quenching rate constant ([2]; T 25 °C, pH 7.4): 1.339e+12 M⁻¹ s⁻¹ | KSV, Stern-Volmer quenching constant ([2]; T 25 °C, pH 7.4, quencher 0-120 µM): 6696 M⁻¹ | ΔG of binding to BSA ([2]; T 25 °C): -5.22 kcal/mol | KSV, Stern-Volmer quenching constant ([2]; T 30 °C, pH 7.4): 4926 M⁻¹ | kq, biomolecular quenching rate constant ([2]; T 30 °C, pH 7.4): 9.852e+11 M⁻¹ s⁻¹ | ΔG of binding to BSA ([2]; T 30 °C): -5.112 kcal/mol | KSV, Stern-Volmer quenching constant ([2]; T 37 °C, pH 7.4): 3147 M⁻¹ | kq, biomolecular quenching rate constant ([2]; T 37 °C, pH 7.4): 6.294e+11 M⁻¹ s⁻¹ | ΔG of binding to BSA ([2]; T 37 °C): -4.964 kcal/mol | ΔH of binding to BSA [2, 5]: -11.57 kcal/mol | ΔS of binding to BSA [2, 5]: −89.20 J·mol^−1·K^−1 | critical micelle concentration (CMC) ([3]; surfactin-C15 0.003-0.12 mM): 0.045 mM | surface tension at the CMC (γcmc) [3]: 28.4 mN·m^−1
Substance: EL[dL]VD[dL]L (also: lariat or depsi (positions not given here)) [Surfactin, surfactin-C15, cyclic lipopeptide biosurfactant from Bacillus subtilis #309; heptapeptide closed to a lactone ring by a C15 β-hydroxyl fatty acid]
